Laboratory results taken from US20260207450A1, “ANTI-DANDRUFF COMPOSITIONS” (Firmenich SA, priority 2022, published 2026).
Like-named read-outs stand apart in the source and are kept apart here.

How the values were obtained:
[1] = test system: M. restricta; assay: Disc-diffusion assay, additional perfumery materials in DMSO, M. restricta, 4 days; assay type: cell-based, Malassezia restricta; settings: for zone of inhibition: in DMSO (1% or 2%, not specified per value)
Description: (§1) Anti-Malassezia effect of additional perfumery materials in DMSO was determined using disc-diffusion assay as described previously. Test samples solutions were prepared in DMSO to final concentrations of 0.5%, 1% or 2%. Discs (Whatman, 6 mm in diameter) were placed on inoculated agar plates. Aliquots (20 μL) of each sample solution was added to each disc. Agar plates were incubated at 30° C. for 4 days. After incubation, diameters of the clear inhibition zones around the discs were recorded
as §1, with “above.” for “previously.”, “recorded.” for “recorded”
Anti-Malassezia effect of additional perfumery materials in solvent in DMSO was determined using disc-diffusion assay, as described previously. Test samples solutions are prepared in DMSO to final concentrations of 0.5%. Discs (Whatman, 6 mm in diameter) were placed on inoculated agar plates. Aliquots (20 μL) of each sample solution was added to each disc. Agar plates were incubated at 30° C. for 4 days. After incubation, diameters of the clear inhibition zones around the discs were measured.

[2] = test system: M. restricta ATCC MYA-4611; assay: Disc-diffusion assay, perfumery materials in DMSO, M. restricta; assay type: cell-based, Malassezia restricta; settings: Malassezia restricta, 144 h
Description: Anti-Malassezia effect of perfumery materials in solvent in DMSO was determined using disc-diffusion assay, based on the method of J Mycol Infect 2018: 23: 91-98. In brief, working cultures of Malassezia strains were prepared from −80 C stock culture on mDixon agar plate (for M. furfur DSM 6170) or mLN agar plate (for M. restricta ATCC MYA-4611 and M. globosa ATCC MYA-4612), and cells were suspended in 0.9% saline, and spread onto mDixon or mLN agar surface to prepare lawn plate. Test samples solutions are prepared in DMSO to final concentrations of 0.2%, 1% or 2%. Discs (Whatman, 6 mm in diameter) were placed on inoculated agar plates with each Malassezia strains respectively, including M. furfur DSM 6170, M. restricta ATCC MYA-4611, and M. globosa ATCC MYA-4612. Aliquots (20 μL) of each sample solution was added to each disc. Agar plates were incubated at 30° C. for 3 days for M. furfur DSM 6170, and 6 days for M. restricta ATCC MYA-4611, and M. globosa ATCC MYA-4612. After incubation, diameters of the clear inhibition zones around the discs were measured. Inhibition zone greater than 6 mm are regarded as having anti-Malassezia effect.

[3] = Malassezia restricta, 96 h, Table 20, 0.5% in DMSO, 4 days, read-out: Inhibition zone diameter (mm) on M. restricta
[4] = Malassezia restricta, 96 h, Table 19, M. restricta, 4 days, read-out: Inhibition zone diameter (mm)

| Molecule | zone of inhibition at 0.5 % [1, 3] | other results |
| --- | --- | --- |
| Cc1cc2c(cc1C=O)C(C)(C)[C@H](C)[C@@H](C)C2(C)C (racemic) [(6RS,7RS)-3,5,5,6,7,8,8-heptamethyl-5,6,7,8-tetrahydro-2-naphthalenecarbaldehyde] | 7.8 mm |  |
| C=CC(C)CCCC(C)(C)O (racemic) [(+/−)-2,6-dimethyl-7-octen-2-ol] | 7.5 mm |  |
| CCC(=CCC1CC=C(C)C1(C)C)CO (racemic) [(+/−)-2-ethyl-4-(2,2,3-trimethyl-3-cyclopenten-1-yl)-2-buten-1-ol] | 7 mm |  |
| CCCCCCCCC(C)C=O (racemic) [(+/−)-2-methyldecanal] | 7.1 mm |  |
| CCCCCCCCCC(C)C=O (racemic) [(+/−)-2-methylundecanal] | 7.1 mm |  |
| CC(C)=CCCC(C)CC=O (racemic) [(+/−)-3,7-dimethyl-6-octenal] | 7.3 mm |  |
| CC(C=O)Cc1ccc2c(c1)OCO2 (racemic) [(+/−)-3-(1,3-benzodioxol-5-yl)-2-methylpropanal] | 19 mm |  |
| CC(CC=O)CCc1ccccc1 (racemic) [(+/−)-3-methyl-5-phenylpentanal] | 7.6 mm |  |
| Cc1ccc2c(c1)CC(C)(CO)C2 (racemic) [(+/−)-(2,5-dimethyl-2,3-dihydro-1H-inden-2-yl)methanol] | 7 mm |  |
| CC1=CCC(C/C=C(\C)CO)C1(C)C (racemic) [(+/−)-(2E)-2-methyl-4-(2,2,3-trimethyl-3-cyclopenten-1-yl)-2-buten-1-ol] | 7.6 mm |  |
| C/C(=C\c1ccc(C)cc1)CC(C)C=O (racemic) [(+/−)-(4E)-2,4-dimethyl-5-(4-methylphenyl)-4-pentenal] |  | zone of inhibition at 0.5 % ([1]; Malassezia restricta, 96 h, read-out: Inhibition zone diameter (mm)): 7.8 mm |
| CC(C)=CCCC(C)CCOCC=O (racemic) [(+/−)-[(3,7-dimethyl-6-octen-1-yl)oxy]acetaldehyde] | 9.7 mm |  |
| C=C1CCCC(C)(C)C1C(=O)OC (racemic) [(+/−)-methyl 2,2-dimethyl-6-methylidenecyclohexanecarboxylate] | 7.5 mm |  |
| c1ccc(Oc2ccccc2)cc1 [1,1′-oxydibenzene] |  | zone of inhibition at 0.5 % ([1]; Malassezia restricta, 96 h, read-out: Inhibition zone diameter (mm) on M. restricta): 7.4 mm |
| O=C1CCCCCCCCCCCC(=O)OCCO1 [1,4-dioxacycloheptadecane-5, 17-dione] | 7.3 mm |  |
| CC1=C(C=O)C(C)(C)CC=C1 [2,6,6-trimethyl-1,3-cyclohexadiene-1-carbaldehyde] | 7.2 mm |  |
| CC(C)CCCC(C)(C)O [2,6-dimethyl-2-heptanol] | 7.7 mm |  |
| CC(=O)OCCC1=CCC2CC1C2(C)C (stereo not drawn) [2-(6,6-dimethyl-bicyclo[3.1.1]hept-2-en-2-yl)ethyl acetate] | 7.5 mm |  |
| CC(C=O)c1ccccc1 (stereo not drawn) [2-phenylpropanal] | 7 mm |  |
| CC(=CC=O)CCC(C)=C(C)C [3,6,7-trimethyl-2,6-octadienal] | 8.7 mm |  |
| CC1(C)CC=C(CCC=O)CC1 [3-(4,4-dimethyl-1-cyclohexen-1-yl)propanal] | 8.9 mm |  |

| Molecule | zone of inhibition at 0.5 % [1, 3] | other results |
| --- | --- | --- |
| CC1(C)C2CC=C(CCC=O)C1C2 (stereo not drawn) [3-(6,6-dimethyl-bicyclo[3.1.1]hept-2-en-2-yl)propanal] | 7.3 mm |  |
| CC(C)(O)Cc1ccc(CCC=O)cc1 [3-[4-(2-hydroxy-2-methylpropyl)phenyl]propanal] |  | zone of inhibition at 1 % ([1]; Malassezia restricta, 96 h, Table 18, 1% in DMSO, M. restricta, 4 days, read-out: Inhibition zone diameter (mm)): 8.9 mm; zone of inhibition at 2 % ([1]; Malassezia restricta, 96 h, Table 18, 2% in DMSO, M. restricta, 4 days, read-out: Inhibition zone diameter (mm)): 16 mm |
| COC(C)(C)C1CC=C(C)CC1 (stereo not drawn) [4-(2-methoxy-2-propanyl)-1-methylcyclohexene] | 7 mm |  |
| COc1cc(C=O)ccc1OC(=O)C(C)C [4-formyl-2-methoxyphenyl 2-methylpropanoate] | 10.2 mm |  |
| COC(OC)C(C)(C)CC=C(C)C [6,6-dimethoxy-2,5,5-trimethyl-2-hexene] | 7.2 mm |  |
| Cc1ccc2c(c1)OCC(=O)CO2 [7-methyl-2H-1,5-benzodioxepin-3(4H)-one] | 7 mm |  |
| CCCCCCCC=C/C=C/C=O [(2E)-2,4-dodecadienal] |  | zone of inhibition [1, 4]: 21.5 mm |
| CCCCCCC=C/C=C/C=O [(2E)-2,4-undecadienal] |  | zone of inhibition [1, 4]: 26.6 mm |
| CCCCCC/C(C=O)=C\c1ccccc1 [(2E)-2-benzylideneoctanal] | 7.2 mm |  |
| C/C(C=O)=C\c1ccccc1 [(2E)-2-methyl-3-phenyl-2-propenal] | 8.1 mm |  |
| CC/C=C/C=C/C=O [(2E,4E)-2,4-heptadienal] |  | zone of inhibition [1, 4]: > 40 mm |
| Cc1ccc(CC=O)cc1 [(4-methylphenyl)acetaldehyde] | 10.6 mm |  |
| CCCCC/C=C/CCC=O [(4E)-4-decenal] | 7.2 mm |  |
| CCCCCCC/C=C\CCC=O [(4Z)-4-dodecenal] |  | zone of inhibition [1, 4]: 7.4 mm |
| CC(C)=CCC[C@@H](C)CC=O [(+)-(R)-3,7-dimethyl-6-octenal] | 7.1 mm |  |
| CCCCCC/C=C/CO [(E)-2-nonen-1-ol] |  | zone of inhibition [1, 4]: 7.5 mm |
| CCCCCC/C=C/C=O [(E)-2-nonenal] | 38 mm |  |
| CCCCC/C=C/C=O [(E)-2-octenal] | 24.8 mm |  |
| CCCCCCCCCC/C=C/C=O [(E)-2-tridecenal] | 15.2 mm |  |
| CCCCCCCC/C=C/C=O [(E)-2-undecenal] |  | zone of inhibition [1, 4]: > 40 mm |
| CCCCC/C=C/C=C/C=O [(E,E)-2,4-decadienal] |  | zone of inhibition [1, 4]: > 40 mm |

| Molecule | zone of inhibition at 0.5 % [1, 3] | other results |
| --- | --- | --- |
| CC/C=C/CC/C=C/C=O [(E,E)-2,6-nonadienal] |  | zone of inhibition [1, 4]: > 40 mm |
| CCCCCCC/C=C\C=O [(Z)-2-decenal] |  | zone of inhibition [1, 4]: > 40 mm |
| CC/C=C\CCOC(=O)C(C)C [(Z)-3-hexenyl isobutyrate] | 7.7 mm |  |
| CCCC/C=C\CCO [(Z)-3-octen-1-ol] |  | zone of inhibition [1, 4]: 7.1 mm |
| CCCCC/C=C\CCC=O [(Z)-4-decenal] |  | zone of inhibition [1, 4]: 7.2 mm |
| CC/C=C\CCCCO [(Z)-5-octen-1-ol] |  | zone of inhibition [1, 4]: 7.3 mm |
| CC/C=C\CCCCC=O [(Z)-6-nonenal] | 7.2 mm |  |
| CC/C(=C\C[C@H]1CC=C(C)C1(C)C)CO [(−)-(2E)-2-ethyl-4-[(1R)-2,2,3-trimethyl-3-cyclopenten-1-yl]-2-buten-1-ol] | 7.6 mm |  |
| CC1(C)CCC[C@]2(C)[C@H]3CCO[C@]3(C)CC[C@@H]12 [(−)-(3aR,5aS,9aS,9bR)-3a,6,6,9a-tetramethyldodecahydronaphtho[2,1-b]furan] | 7.7 mm |  |
| CC(C)=CCC[C@@H](C)CC#N [(−)-(R)-3,7-dimethyl-6-octenenitrile] | 7.2 mm |  |
| CCCCCCO [Mix 1-hexanol, 1-hexanol] |  | zone of inhibition at 1 % [2]: 6.7 mm |
| CCCCC/C=C\C=C\C(=O)OCC [ethyl (2E,4Z)-2,4-decadienoate] | 7.4 mm |  |
| CNc1ccccc1C(=O)OC [methyl 2-(methylamino)benzoate] | 7.4 mm |  |
| CCCCCCCCC=O [nonanal] | 7.3 mm |  |
| CCCCCCCC=O [octanal] | 7.5 mm |  |
| (1RS,2RS)-2,4-dimethyl-3-cyclohexene-1-carbaldehyde + (1RS,2SR)-2,4-dimethyl-3-cyclohexene-1-carbaldehyde |  | Inhibition zone diameter (mm) on M. restricta ([1]; Table 20, 0.5% in DMSO, 4 days): 8.0 mm |
| (2R)-2-methyl-4-[(1R)-2,2,3-trimethyl-3-cyclopenten-1-yl]-4-pentenal + (2S)-2-methyl-4-[(1R)-2,2,3-trimethyl-3-cyclopenten-1-yl]-4-pentenal |  | Inhibition zone diameter (mm) on M. restricta ([1]; Table 20, 0.5% in DMSO, 4 days): 7.0 mm |
| (+)-(3S)-3-[(1R)-4-methyl-3-cyclohexen-1-yl]butanal + (+)-(3R)-3-[(1R)-4-methyl-3-cyclohexen-1-yl]butanal |  | Inhibition zone diameter (mm) on M. restricta ([1]; Table 20, 0.5% in DMSO, 4 days): 7.3 mm |
| (+/−)-(4Z)-4,8-dimethyl-4,9-decadienal + (+/−)-(4E)-4,8-dimethyl-4,9-decadienal |  | Inhibition zone diameter (mm) ([1]; Table 19, in DMSO (0.5%, 1% or 2%, not specified per value), M. restricta, 4 days): 7.3 mm |
| cis-4-(2-methyl-2-propanyl)cyclohexyl acetate + trans-4-(2-methyl-2-propanyl)cyclohexyl acetate |  | Inhibition zone diameter (mm) on M. restricta ([1]; Table 20, 0.5% in DMSO, 4 days): 7.2 mm |
